Article PMC11851776, “Structural Basis for the Catalysis and Substrate Specificity of a LarA Racemase with a Broad Substrate Spectrum” (ACS Catalysis, 2025)
Values belong to the compound of their own block, whether it stands above or below them.

Assays:
LarAIp [1] = biological target: T1, LarAIp (Isosphaera pallida, UniProt E8QWZ4); test: X-ray crystal structure, […] Å; format: binding; details: ligand exchange with ~3 mM D/L-2HB at 55 °C 15 min, then 4 °C; active site
T1 construct: gene Isop_3476; full length, C-terminal Strep-II tag, co-expressed with LarB, LarC and LarE in Lactococcus lactis NZ3900 (structures); apoprotein from E. coli (pBADHisA) plus in vitro-synthesized NPN for substrate assays; 47403 Da after loss of Met1; monomer

LarAIp [2] = biological target: T1, LarAIp; test: X-ray crystal structure, […] Å; format: binding; details: ligand exchange at ~3 mM, 55 °C 15 min, then 4 °C; active site
LarAIp [3] = biological target: T1, LarAIp; test: X-ray crystal structure, […] Å; format: binding; details: naturally bound in enzyme as purified; active site with NPN tethered to Lys183
LarAIp [4] = biological target: T1, LarAIp; test: competitive-substrate racemization assay, capillary electrophoresis; format: biochemical; details: turnover only (relative kcat/KM); 100 mM Tris-HCl pH 8.0, 30 °C, 1 μM NPN
LarAIp [5] = biological target: T1, LarAIp; test: racemization assay, D-lactate formed measured by D/L-lactate kit; format: biochemical; details: turnover only; conversion to D-lactate also seen in crystal

T1 sequence (E8QWZ4 entry or part of it): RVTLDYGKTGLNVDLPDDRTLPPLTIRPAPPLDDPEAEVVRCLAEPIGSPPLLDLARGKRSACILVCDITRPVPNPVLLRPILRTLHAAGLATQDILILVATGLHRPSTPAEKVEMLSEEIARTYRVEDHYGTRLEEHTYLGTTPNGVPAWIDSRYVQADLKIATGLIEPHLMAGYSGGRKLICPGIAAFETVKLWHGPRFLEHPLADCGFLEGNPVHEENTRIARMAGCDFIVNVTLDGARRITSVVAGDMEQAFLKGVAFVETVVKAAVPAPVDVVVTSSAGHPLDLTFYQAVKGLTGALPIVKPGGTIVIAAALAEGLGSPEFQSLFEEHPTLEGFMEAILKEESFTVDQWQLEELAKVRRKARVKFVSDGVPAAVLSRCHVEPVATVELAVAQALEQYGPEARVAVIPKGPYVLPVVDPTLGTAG

X-ray crystal structure, 1.38 Å (LarAIp [1]): 9EID (LarAIp with bound D-2HB)
Compound: CC[C@@H](O)C(=O)O [D-2HB]

X-ray crystal structure, 1.65 Å (LarAIp [2]): 9EIF (LarAIp with bound D-2HIV)
Compound: CC(C)[C@@H](O)C(=O)O [D-2HIV]

Compound: C[C@@H](O)C(=O)O [D-lactate]
X-ray crystal structure, 1.74 Å (LarAIp [3]): 9EIA (LarAIp with bound D-lactate as purified)

Compound: O=C(O)[C@@H](O)CO [L-glycerate]
competitive-substrate racemization assay, capillary electrophoresis (LarAIp [4]): highest kcat/KM values for L-lactate and 2-hydroxybutyrate (2HB), followed by L-glycerate

Compound: C[C@H](O)C(=O)O [L-lactate]
racemization assay, D-lactate formed measured by D/L-lactate kit (LarAIp [5]): confirmed the conversion of three L-α-hydroxyacids into the corresponding D-enantiomers
